Test results as given in ChEMBL document CHEMBL3885861, “Open TG-GATES”.

Species: Rattus norvegicus
Assay: Open TG-GATES - Regimen: Single
Format: toxicity, organism-based, Sprague-Dawley
Design: regimen Single, gender Male, age 6 weeks
Conditions: in vivo, po, 15 mg/kg, route gavage, dose level Low; for APTT / Bas / Eos / Fbg / Hb / Ht / Lym / MCH / MCHC / MCV / Mono / Neu / PT / Plat / RBC / Ret / WBC: tissue Blood; for KIDNEY_L / KIDNEY_R / KIDNEY_TOTAL: tissue Kidney; for LIVER: tissue Liver; for A/G / ALP / ALT / AST / BUN / CRE / Ca / Cl / DBIL / GLC / IP / K / LDH / Na / PL / RALB / TBIL / TC / TG / TP / gamma-GTP: tissue Plasma

## S=C=Nc1cccc2ccccc12 [1-NAPHTHYLISOTHIOCYANATE]
3 h
  TERMINAL_BW: 226 g
  APTT: 18.2 s
  Bas: 0.2%
  Eos: 0.8%
  Fbg: 233 mg/dL
  Hb: 13.7 g/dL
  Ht: 38.1%
  Lym: 75.2%
  MCH: 22 pg
  MCHC: 35.8%
  MCV: 61.5 fL
  Mono: 3%
  Neu: 20%
  PT: 11.7 s
  Plat: 119.1 x10_4/uL
  RBC: 622.2 x10_4/ul
  Ret: 8.4%
  WBC: 91.8 x10_2/uL
  KIDNEY_L: 1 g
  KIDNEY_R: 1 g
  KIDNEY_TOTAL: 2 g
  LIVER: 10.2 g
  A/G: 1.6
  ALP: 1037.2 IU/L
  ALT: 42.2 IU/L
  AST: 75 IU/L
  BUN: 10.6 mg/dL
  CRE: 0.4 mg/dL
  Ca: 10.8 mg/dL
  Cl: 103.8 meq/L
  DBIL: 0.1 mg/dL
  GLC: 220.4 mg/dL
  IP: 10 mg/dL
  K: 4.1 meq/L
  LDH: 199.8 IU/L
  Na: 142 meq/L
  PL: 159.4 mg/dL
  RALB: 3.4 g/dL
  TBIL: 0.1 mg/dL
  TC: 75.2 mg/dL
  TG: 135.2 mg/dL
  TP: 5.6 g/dL
  gamma-GTP: 0.8 IU/L
6 h
  TERMINAL_BW: 220 g
  APTT: 18.5 s
  Bas: 0%
  Eos: 0.8%
  Fbg: 243.4 mg/dL
  Hb: 13.8 g/dL
  Ht: 38.6%
  Lym: 75.2%
  MCH: 21.8 pg
  MCHC: 35.7%
  MCV: 60.9 fL
  Mono: 3.2%
  Neu: 19.8%
  PT: 11.8 s
  Plat: 120.7 x10_4/uL
  RBC: 634.6 x10_4/ul
  Ret: 7%
  WBC: 100.7 x10_2/uL
  KIDNEY_L: 1 g
  KIDNEY_R: 1 g
  KIDNEY_TOTAL: 1.9 g
  LIVER: 9.6 g
  A/G: 1.7
  ALP: 1074.4 IU/L
  ALT: 32.4 IU/L
  AST: 68.2 IU/L
  BUN: 8 mg/dL
  CRE: 0.4 mg/dL
  Ca: 10.5 mg/dL
  Cl: 103.8 meq/L
  DBIL: 0.1 mg/dL
  GLC: 235.8 mg/dL
  IP: 10 mg/dL
  K: 4.1 meq/L
  LDH: 196 IU/L
  Na: 141.6 meq/L
  PL: 140.2 mg/dL
  RALB: 3.5 g/dL
  TBIL: 0.1 mg/dL
  TC: 77 mg/dL
  TG: 61 mg/dL
  TP: 5.6 g/dL
  gamma-GTP: 1.2 IU/L
9 h
  TERMINAL_BW: 215.5 g
  APTT: 18 s
  Bas: 0.2%
  Eos: 0.8%
  Fbg: 237 mg/dL
  Hb: 13.6 g/dL
  Ht: 38.1%
  Lym: 74.8%
  MCH: 21.5 pg
  MCHC: 35.6%
  MCV: 60.5 fL
  Mono: 2.4%
  Neu: 20.8%
  PT: 12.1 s
  Plat: 122.9 x10_4/uL
  RBC: 631.6 x10_4/ul
  Ret: 7.1%
  WBC: 92.1 x10_2/uL
  KIDNEY_L: 1 g
  KIDNEY_R: 0.9 g
  KIDNEY_TOTAL: 1.9 g
  LIVER: 8.7 g
  A/G: 1.7
  ALP: 1018.2 IU/L
  ALT: 35.8 IU/L
  AST: 72 IU/L
  BUN: 10.4 mg/dL
  CRE: 0.4 mg/dL
  Ca: 10.4 mg/dL
  Cl: 104 meq/L
  DBIL: 0.092 mg/dL
  GLC: 223 mg/dL
  IP: 10.1 mg/dL
  K: 3.8 meq/L
  LDH: 157.4 IU/L
  Na: 142.2 meq/L
  PL: 134.2 mg/dL
  RALB: 3.6 g/dL
  TBIL: 0.1 mg/dL
  TC: 73.2 mg/dL
  TG: 34.8 mg/dL
  TP: 5.7 g/dL
  gamma-GTP: 1 IU/L
24 h
  TERMINAL_BW: 232.5 g
  APTT: 17.6 s
  Bas: 0.4%
  Eos: 0.8%
  Fbg: 217.8 mg/dL
  Hb: 13.9 g/dL
  Ht: 38.5%
  Lym: 80%
  MCH: 21.9 pg
  MCHC: 36%
  MCV: 60.8 fL
  Mono: 2%
  Neu: 16%
  PT: 11.9 s
  Plat: 122.9 x10_4/uL
  RBC: 633.6 x10_4/ul
  Ret: 6.5%
  WBC: 106 x10_2/uL
  KIDNEY_L: 1 g
  KIDNEY_R: 1 g
  KIDNEY_TOTAL: 2 g
  LIVER: 10.3 g
  A/G: 1.6
  ALP: 1064.4 IU/L
  ALT: 39.8 IU/L
  AST: 73.6 IU/L
  BUN: 15.6 mg/dL
  CRE: 0.4 mg/dL
  Ca: 10.6 mg/dL
  Cl: 103.8 meq/L
  DBIL: 0.068 mg/dL
  GLC: 198 mg/dL
  IP: 7.3 mg/dL
  K: 3.8 meq/L
  LDH: 209.4 IU/L
  Na: 141.6 meq/L
  PL: 131 mg/dL
  RALB: 3.4 g/dL
  TBIL: 0.1 mg/dL
  TC: 67.4 mg/dL
  TG: 84.2 mg/dL
  TP: 5.5 g/dL
  gamma-GTP: 1.6 IU/L
